In ChEMBL document CHEMBL1138130, “Synthesis and antibacterial activity of 3-O-acyl-6-O-carbamoyl erythromycin A derivatives” (2006):
In brackets after ≈: the same amount, converted by molar mass.

Assays:
Type in all cases: functional
Haemophilus influenzae = test: Antibacterial activity against Haemophilus influenzae OC4882
Staphylococcus aureus = test: Antibacterial activity against Staphylococcus aureus OC4172
Streptococcus pneumoniae [1] = test: Antibacterial activity against Mef(A) efflux pump containing Streptococcus pneumoniae OC4438
Streptococcus pneumoniae [2] = test: Antibacterial activity against erm(B) ribosomal methylase gene containing Streptococcus pneumoniae OC4051
Streptococcus pneumoniae [3] = test: Antibacterial activity against Streptococcus pneumoniae OC9132

MIC (Haemophilus influenzae) [µg/mL]	MIC (Staphylococcus aureus) [µg/mL]	MIC (Streptococcus pneumoniae [1]) [µg/mL]	MIC (Streptococcus pneumoniae [2]) [µg/mL]	MIC (Streptococcus pneumoniae [3]) [µg/mL]	Compound
4 (≈ 4.18 µM)	0.25 (≈ 0.261 µM)	0.12 (≈ 0.125 µM)	0.12 (≈ 0.125 µM)	0.03 (≈ 0.0313 µM)	CC[C@H]1OC(=O)[C@H](C)[C@@H](OC(=O)Cc2ccccn2)[C@H](C)[C@@H](O[C@@H]2O[C@H](C)C[C@H](N(C)C)[C@H]2O)[C@](C)(OC(=O)NC/C=C/c2ccc(-c3ncccn3)cc2)C[C@@H](C)C(=O)[C@H](C)[C@H]2NC(=O)O[C@@]21C
16 (≈ 17.4 µM)	1 (≈ 1.09 µM)	0.12 (≈ 0.13 µM)	0.12 (≈ 0.13 µM)	0.06 (≈ 0.0652 µM)	CC[C@H]1OC(=O)[C@H](C)[C@@H](OC(=O)CC2CC2)[C@H](C)[C@@H](O[C@@H]2O[C@H](C)C[C@H](N(C)C)[C@H]2O)[C@](C)(OC(=O)NC/C=C/c2ccc(-c3ncccn3)cc2)C[C@@H](C)C(=O)[C@H](C)[C@H]2NC(=O)O[C@@]21C
4 (≈ 4.54 µM)	0.25 (≈ 0.284 µM)	0.03 (≈ 0.034 µM)	0.06 (≈ 0.0681 µM)	0.03 (≈ 0.034 µM)	CC[C@H]1OC(=O)[C@H](C)[C@@H](OC(=O)C(C)C)[C@H](C)[C@@H](O[C@@H]2O[C@H](C)C[C@H](N(C)C)[C@H]2O)[C@](C)(OC(=O)NC/C=C/c2cnc3ccccc3c2)C[C@@H](C)C(=O)[C@H](C)[C@H]2NC(=O)O[C@@]21C
8 (≈ 8.95 µM)	0.5 (≈ 0.559 µM)	0.12 (≈ 0.134 µM)	0.25 (≈ 0.28 µM)	0.03 (≈ 0.0336 µM)	CCC(=O)O[C@H]1[C@H](C)[C@@H](O[C@@H]2O[C@H](C)C[C@H](N(C)C)[C@H]2O)[C@](C)(OC(=O)NC/C=C/c2ccc(-c3ncccn3)cc2)C[C@@H](C)C(=O)[C@H](C)[C@H]2NC(=O)O[C@]2(C)[C@@H](CC)OC(=O)[C@@H]1C

Compound	MIC (Haemophilus influenzae) [µg/mL]	MIC (Staphylococcus aureus) [µg/mL]	MIC (Streptococcus pneumoniae [1]) [µg/mL]	MIC (Streptococcus pneumoniae [2]) [µg/mL]	MIC (Streptococcus pneumoniae [3]) [µg/mL]
CC[C@H]1OC(=O)[C@H](C)[C@@H](O[C@H]2C[C@@](C)(OC)[C@@H](O)[C@H](C)O2)[C@H](C)[C@@H](O[C@@H]2O[C@H](C)C[C@H](N(C)C)[C@H]2O)[C@](C)(O)C[C@@H](C)C(=O)[C@H](C)[C@@H](O)[C@]1(C)O [ERYTHROMYCIN]	8 (≈ 10.9 µM)	0.5 (≈ 0.681 µM)	4 (≈ 5.45 µM)	> 16	0.06 (≈ 0.0818 µM)
